Source: patent US8110577B2, “Histone deacetylase inhibitors” (Queen Mary & Westfield College, priority 2006, dated 2012)
Where two headings read alike, the source gives them in different places. Values belong to the molecule of their own block, whether it stands above or below them.

Assays:
[1] = tested on: HDAC activity in intact CEM cells; experiment: Whole cell HDAC activity assay (MAL) in intact CEM cells; type: cell-based; details: FIG. 2, read-out: HDAC inhibitory values in intact CEM cells
Method: Cells were then rapidly washed at 4° C., lysed by sonication, the reaction stopped with acetonitrile, and MAL and the deacetylated product determined in the supernatant by rapid HPLC.
(§1) Chromatographic separation of MAL and ML was carried out using a 15 cm Apex ODS […] column with acetonitrile/distilled water (40:60), 2% trifluoracetic acid (TFA) v/v mobile phase at a flow rate of 1.2 ml/minute. MAL and ML were quantified by fluorescence detection at excitation/emission wavelengths of 330/395 nm.
(§2) The activity of each inhibitor was assessed at a minimum of 5 non-zero concentrations. MAL and ML peak heights were used to derive the percentage MAL in the mixture as the ration of MAL: MAL+ML.

[2] = tested on: panel of 8 lymphoma cell lines; experiment: Cell viability (ATP) in a panel of 8 lymphoma cell lines; type: cell-based; details: ATP endpoint assay, read-out: EC50 values (range over the panel)
Method: (§3) EC50 values for percentage viability (3-day exposure) were determined using 2 different methods, trypan blue staining and an ATP assay. Trypan blue staining relies on the ability of healthy cells with intact membranes to exclude dyes. As cells start to undergo programmed cell death membrane integrity becomes compromised allowing dye entry. The % cells staining positive for trypan blue relative to the total cell number therefore reflects % cell viability (% viability). Non-viable cells also lose the ability to regenerate ATP. A specific ATP assay procedure using a 96-well plate-based approach (Vialite assay, Cambrex, UK) also measures cell viability, expressed relative to the ATP value in the control (untreated) cell population.

[3] = tested on: MCF7 (breast cancer) cells; experiment: Cell viability, 3-day exposure, MCF7 cells; type: cell-based; details: Homo sapiens, 72 h, 3 day incubation, FIG. 3
Method: as §3

[4] = tested on: Cell-free (CEM cells) HDAC; experiment: Cell-free (CEM cells) HDAC inhibitory activity, fluorescent commercial kit (Upstate Cell Signaling); type: biochemical
Source text: HDAC inhibitory activity has also been determined using a fluorescent commercial kit method (Upstate Cell Signaling).

[5] = tested on: acetylated histone H3 in MCF-7 cells; experiment: Histone H3 acetylation in MCF7 cells (protein blot); type: cell-based; details: for histone H3 acetylation with time: FIG. 5; for change in histone H3 acetylation: 2 hour exposure to increasing concentrations, FIG. 4
Method: The effect of the compounds on the acetylation of histone H3 was investigated in MCF-7 cells. Briefly cells were treated with a range of concentration of specific inhibitor or different exposure durations. Cells were then lysed and the proteins resolved by polyacrylamide electrophoresis prior to blotting onto a nitrocellulose membrane and staining with an antibody specific for the protein under study (acetylated histone H3) and a control protein (β-actin). As HDAC inhibitors reduce deacetylase activity, treatment of intact cells results in the accumulation of acetylated histones.

[6] = molecular target: Partially purified HDAC enzyme (liver prep); experiment: HDAC activity assay (MAL deacetylation, HPLC) with partially purified liver HDAC; type: biochemical, rat
Source text: The activity of compounds as inhibitors of histone deacetylase was investigated using a modified procedure based on a rapid in vitro HDAC activity assay (HDAC mediated deacetylation of an Ω-acetylated lysine (MAL)) as described by Hoffman et al in Nucl. Acids. Res. 27 2057-2058 (1999).
The HDAC substrate N-(-4-methyl-7-coumarinyl)-N-α-(tert-butyloxy-carbonyl)-N-Ω abbreviated as MAL was synthesised as described (Hoffman et al 1999). HDAC inhibitors and substrate (MAL) were made up in Hepes buffer (50 mM, pH 7.4). Partially purified HDAC enzyme (liver prep, 100 μL), HDAC inhibitor or Hepes buffer (100 μl), substrate (MAL, 100 μL 5 μg/mL) and assay buffer (100 μL, tris-HCl (10 mM), NaCl (10 mM), MgCl2 (15 mM), EGTA (0.1 mM), 10% (v/v) glycerol, and mercaptoethanol (0.007%)) were incubated at 37° C. for 60 minutes. The reaction was terminated with 100 μl acetonitrile, and MAL and the deacetylated product (ML) were determined in the supernatant.
as §1, §2
HDAC inhibitory activity against cell-free HDACs isolated from rat liver was determined using the HPLC method.

[7] = tested on: HCT116 (colorectal cancer) cells; experiment: Cell viability, 3-day exposure, HCT116 cells; type: cell-based; details: Homo sapiens, HCT-116, 72 h, 3 day incubation, FIG. 3
Method: as §3

CEM (leukaemic) cells = experiment: Cell viability / cytotoxic activity, ATP Vialite assay, CEM cells; type: cell-based; details: Homo sapiens, CCRF-CEM
Method: as §3
Effects against viable cell number have been determined using the ATP Vialite kit method (Cambrex, UK).

[8] = tested on: MCF7 (breast cancer) tumours; experiment: MCF7 xenograft study in nude mice; type: in vivo; details: 15 day treatment, FIG. 6
Method: Xenograft studies were carried out with MCF7 cells implanted under the skin on the flank of female nude mice (5-8 weeks of age). […] Animals also received a 2 mg oestrogen pellet as an implant on the day of tumour implantation. Tumour volumes were determined from measurements of 2 diameters carried out every other day out to day 15 of treatment.

[9] = cell-free HDACs isolated from rat liver, HPLC method, different liver preparation than Example 1, read-out: HDAC inhibitory IC50

IC50 [1]: 0.11 ± 0.02 µM | EC50 [2]: 0.02 to 0.08 µM | EC50 [3]: 0.13 µM | IC50 [4]: 0.086 ± 0.007 µM | IC50 [6, 9]: 0.04 ± 0.009 µM | IC50 ([6]; partially purified rat liver preparation, Example 1, FIG. 1, read-out: HDAC inhibitory activity IC50): 0.05 ± 0.01 µM | EC50 [7]: 0.07 µM
Compound: O=C(CCCCCC(C(=O)Nc1ccccc1)C(=O)Nc1ccccc1)NO [UCL67022, 2-Phenylcarbamoyl-octanedioic acid 8-hydroxyamide 1-phenylamide]
histone H3 acetylation with time ([5]; 0.3 μM UCL67022, time periods up to 48 hours): acetylation continued to increase out to 24 hours, and was still substantially higher than baseline at 48 hours | change in histone H3 acetylation [5]: marked change in histone H3 acetylation at concentrations as low as 0.1 μM | EC50 (CEM (leukaemic) cells; 72 h, CEM cells, 3 day incubation, FIG. 3): 0.06 µM | IC50 (CEM (leukaemic) cells; cytotoxic activity against CEM (leukaemic) cells, viable cell number, ATP Vialite kit, read-out: HDAC inhibitory IC50): 0.098 ± 0.042 µM | effect on tumour growth ([8]; daily IP dose levels 12.5·M and 6.25·M): appeared to have a clear effect on tumour growth

IC50 [6, 9]: 318 µM
Compound: Cc1nsc(C(CCCCCC(N)=S)C(=O)Nc2ccccc2)n1 (stereo not drawn) [67022,20, 2-(3-Methyl-[1,2,4]thiadiazol-5-yl)-7-thiocarbamoylheptanoic Acid Phenylamide]

IC50 [4]: 46.1 ± 12 µM | IC50 [6, 9]: 44.6 ± 5.6 µM
Compound: Cc1nsc(C(CCCCCC(=N)NO)C(=O)Nc2ccccc2)n1 (stereo not drawn) [67022,19, 7-(N-Hydroxycarbamimidoyl)-2(3-methyl[1,2,4]thiadiazol-5-yl)heptanoic Acid Phenylamide]

Compound: O=C(CCCCCCC(=O)Nc1ccccc1)NO [SAHA, suberoylanilide hydroxamic acid, reference compound]
histone H3 acetylation with time ([5]; 3 μM SAHA, time periods up to 48 hours): acetylation increased up to 6 hours, but had decreased to baseline levels by 24 hours | change in histone H3 acetylation [5]: relatively minor changes in acetylation state at concentrations <1.0 μM | effect on tumour growth ([8]; daily IP 25 mg/kg in DMSO): not very different to treatment with the DMSO vehicle alone
